Test results as given in patent US20180036270A1, “A METHOD OF PROTECTING AGAINST CARBONYL STRESS INDUCED ISCHEMIA-REPERFUSION INJURY IN THE DIABETIC BRAIN VIA ADMINISTRATION OF N-ACETYLCYSTEINE” (Board of Supervisors of Louisiana State University and …, priority 2015, published 2018).
Entries after “also recorded” stand apart in the source; their conditions may differ.

Columns and labels:
[1] = system: brain GSH and cysteine contents; assay: Brain GSH and cysteine by HPLC; assay type: in vivo, mouse
Source text: Four-week-old male C57BL/6J mice, weighing 18-20 g, were purchased from Jackson Laboratory. These mice were maintained at the Animal Facility of the Louisiana State University Health Sciences Center—Shreveport. Animal care and use in the experiments follow the guidelines in the Guide for the Care and Use of Laboratory Animals, published by the US National Institutes of Health. Following adaptation for 1 week, the mice were divided randomly into 4 groups: non-treated sham operation group (NT-sham group, n=6), non-treated I/R group (NT-I/R group, n=5), vehicle I/R group (Veh-I/R group, n=24), and streptozotocin I/R group (STZ-I/R group, n=19). […] On day 7, mice whose plasma glucose was more than 300 mg/dl were deemed to be diabetic. From diabetes onset at week 1, a group of diabetic mice were given 0.2 mM NAC in the drinking water for 3 weeks (n=3; a total of 4 weeks diabetes, 3 weeks NAC) or 1 week (n=9; a total of 2 weeks diabetes, 1 week NAC). Veh-I/R mice were injected with citrate buffer for consecutive 5 days, and a group of Veh-treated mice were given 0.2 mM NAC for 2 weeks in the drinking water before the ischemia operation (Veh+NAC group, n=8). Another Veh-treated mice were injected (intraperitoneally, 12 hr interval) with 0.5M BSO 24 h before the ischemia operation and during the 24 h reperfusion period (Veh+BSO group, n=10). All mice were 9 weeks old at sacrifice.
Tissue contents of GSH, cysteine and γGC were determined by high-performance liquid chromatography (HPLC). […] Separation of GSH, cysteine and γGC derivatives whose peaks were detected at 365 nm wavelength was performed on a 250×4.6-mm Alltech Lichrosorb NH2 10 μm anion-exchange column. GSH, cysteine and γGC contents were quantified by comparison to standards derivatized in the same manner. Protein pellets were dissolved in 1 M NaOH for protein quantitation and GSH, cysteine and γGC concentrations were expressed as nanomoles per mg protein.

brain MG contents = assay: Brain MG by HPLC; assay type: in vivo, mouse; details: STZ diabetic mice, NAC 3 weeks
Experimental: Tissue contents of MG were also determined by HPLC. The brain tissues were homogenized in the same manner as that for GSH measurement. Homogenates (581 μl) were incubated with 19 μl of 60% perchloric acid at room temperature for 24 h and then centrifuged at 12000 rpm at 4° C. for 10 min. The supernatants were derivatized with 0.1M of o-phenylenediamine for 24 h to produce 2-methylquinoxaline. On the third day, the supernatants were used for measurements of MG contents. Separation of MG derivatives, whose peak was detected at 315 nm wavelength, was performed on a 250×4.6-mm Chromegabond Ultra C-18 reversed phase HPLC column. The contents were quantified using MG standards derivatized with o-phenylenediamine. MG contents were normalized to protein concentrations and expressed as nanomoles per mg protein.

[2] = system: cerebral microvessels of STZ diabetic mice; assay: Light-dye induced thrombosis in cerebral arterioles and venules of STZ diabetic mice; assay type: in vivo, mouse
[3] = system: MG-protein adducts, occludin, GCLc in diabetic mouse brain; assay: Western blot of MG-protein adducts, occludin, GCLc and occludin glycation in brain; assay type: in vivo; details: STZ mice, NAC 3 weeks
Experimental: Representative immunoblots are shown. The bar graphs show the quantitation of the protein band intensities normalized to β-actin; n=5/grp. […] Brain tissues were homogenized with RIPA lysis buffer containing 50 mM Tris, pH 8.0, 150 mM sodium chloride, 0.5% sodium deoxycholate, 0.1% SDS and protease inhibitor cocktail. Total protein (20 μg) per sample was loaded on 10% SDS-polyacrylamide gels. Electrophoresis was performed at 150V for 1 h, and transfer onto PVDF membranes at 100 V for 1 h. The membranes were blocked in 5% nonfat milk in TBST buffer containing 20 mM Tris, 137 mM NaCl, 0.1% Tween20, pH 7.6 for 40 min at room temperature followed by overnight incubation with either rabbit-anti-mouse occludin polyclonal antibody (1:2000), rabbit-anti-mouse GCGc polyclonal antibody (1:2000) or mouse anti-MG monoclonal antibody (1:2000) at 4° C. on an agitator. The second day, the PVDF membranes were incubated with HRP-conjugated goat-anti-rabbit or sheep-anti-mouse secondary antibody (1:10000) for 2 h at room temperature. Protein expression was detected using enhanced chemiluminescence (BIO-RAD) according to the manufacturer's instructions. The membranes were stripped and reprobed with anti-mouse actin monoclonal antibody (1:5000) to verify equal protein loading.

STZ diabetic mice = assay: Tail bleed time as measure of coagulation; assay type: in vivo, mouse; details: 20 week diabetic mice; NAC 2 mM in drinking water for 3 weeks
Experimental: Turning to FIG. 24, as a measure of coagulation, tail bleed time was determined in animals that were diabetic for 20 weeks.

[4] = system: diabetic mice with transient ischemic attacks; assay: Thrombosis after transient ischemic attack (TIA) in diabetic mice; assay type: in vivo, mouse; details: diabetes+TIA mice given NAC
[5] = system: human brain microvascular endothelial cell; assay: Endothelial barrier permeability by transendothelial electrical resistance; assay type: cell-based; details: MG with NAC
Experimental: Moreover, treatment with 100 μM MG in rat thoracic aortic rings for 24 h decreases acetylcholine-induced vascular relaxation via a reduction in p-eNOS (Ser1177) and p-AMPKα (Thr172). MG can reduce endothelial angiogenesis through RAGE-mediated, ONOO(^−)-dependent and autophagy-induced VEGFR2 degradation. […] This is exacerbated by GSH synthesis inhibition and prevented by NAC. The enhanced MG concentration in diabetic patients can also directly contribute to the platelet dysfunction associated with diabetes. Platelet dysfunction is characterized by hyperaggregability and reduced thrombus stability via potentiating thrombin-induced platelet aggregation and dense granule release, but inhibiting platelet spreading on fibronectin and collagen. Given that endothelial dysfunction and enhanced platelet activation could promote stroke, these studies indicate that MG can contribute to ischemic brain injury.

SMILES: CC(=O)N[C@@H](CS)C(=O)O [NAC, N-acetylcysteine]
- brain GSH concentrations ([1]; STZ diabetic mice, NAC in drinking water 1 or 3 weeks): significant increases in tissue GSH levels; also recorded: significantly higher; also recorded: increased
- brain cysteine levels ([1]; vehicle and STZ diabetic mice given NAC): significant decrease; also recorded: significantly decreased
- MG-to-GSH ratio (brain MG contents): significantly decreased
- brain MG levels (brain MG contents): a trend for decreased MG, but not significant; also recorded: remained high, although trending lower; also recorded: attenuated
- thrombosis onset and cessation times in cerebral venules and arterioles ([2]; 6 and 20 week diabetic mice, NAC 2 mM in drinking water for 3 weeks): provided protection against the accelerated thrombosis in both types of vessels
- time to onset of thrombosis in brain microvessels ([2]; 20 week diabetic mice, NAC 2 mM in drinking water for 1 week): decreases the accelerated onset of thrombosis
- MG-adduct formation in brain [3]: significantly decreased
- occludin glycation in brain (immunoprecipitation) [3]: significantly decreased
- total protein expression of GCLc [3]: does not alter
- total protein expression of occludin [3]: does not alter
- tail bleed time (STZ diabetic mice): prevented this accelerated coagulation; also recorded: reversed
- thrombosis time [4]: some improvement
- MG-induced endothelial barrier permeability [5]: prevented
